Experimental data reported in article PMC3549521, “Carbocyclic Analogues of Inosine-5’-Monophosphate: Synthesis and Biological Activity” (Acta Naturae, 2012).

Experiments:
[1] = molecular target: T1, human type II inosine-5′-monophosphate dehydrogenase (IMPDH II) (Homo sapiens, UniProt P12268); assay: recombinant enzyme assay, NADH formation at […] nm; positive control; format: biochemical
T1 construct: gene IMPDH2; human recombinant IMPDH II

[2] = molecular target: T1, human type II inosine-5′-monophosphate dehydrogenase (IMPDH II); assay: recombinant enzyme assay, NADH formation at […] nm, […] IMP and […] NAD; format: biochemical

T1 sequence (P12268 2-514): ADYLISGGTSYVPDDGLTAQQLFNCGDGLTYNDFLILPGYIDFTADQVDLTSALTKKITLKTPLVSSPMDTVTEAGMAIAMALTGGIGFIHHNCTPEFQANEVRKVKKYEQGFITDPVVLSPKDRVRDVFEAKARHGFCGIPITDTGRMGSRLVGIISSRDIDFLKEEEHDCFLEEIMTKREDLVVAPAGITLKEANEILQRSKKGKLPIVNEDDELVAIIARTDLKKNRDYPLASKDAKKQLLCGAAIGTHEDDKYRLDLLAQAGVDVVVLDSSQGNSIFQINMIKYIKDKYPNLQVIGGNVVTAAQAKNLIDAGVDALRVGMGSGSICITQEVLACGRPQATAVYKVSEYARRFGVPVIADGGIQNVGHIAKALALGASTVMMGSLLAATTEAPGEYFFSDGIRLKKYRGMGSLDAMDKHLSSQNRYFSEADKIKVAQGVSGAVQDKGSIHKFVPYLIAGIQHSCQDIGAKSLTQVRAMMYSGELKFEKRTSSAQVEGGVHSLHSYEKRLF

NC(=O)c1ncn([C@@H]2O[C@H](COP(=O)(O)O)[C@@H](O)[C@H]2O)n1 [Ribavirin monophosphate] was tested, and the IC50 [1] was 2 µM.

Work on O=c1[nH]cnc2c1ncn2C1C=CC(OCP(=O)(O)O)C1 (stereo not drawn) [compound 1, 9-(4’-Phosphonomethoxy-2’-cyclopenten-1’-yl)hypoxanthine] yielded a Ki [2] of 474 µM.

Work on O=c1[nH]cnc2c1ncn2C1CC(OCP(=O)(O)O)C(O)C1O (stereo not drawn) [compound 2, 9-(4’-phosphonomethoxy-2’,3’-dihydroxycyclopent-1’-yl)hypoxanthine] yielded a Ki [2] of 975 µM.
